Measurements taken from patent US20240101557A1, “FUSED TRICYCLIC COMPOUNDS AS INHIBITORS OF KRAS G12V MUTANTS” (INCYTE CORPORATION, priority 2022, published 2024).
pIC50: −log10 of the molar value.

Experiments:
[1] = test system: KRAS G12V; assay: G12V_cell (cellular assay on KRAS G12V cells, method not named in Table 1); format: cell-based; settings: cell line and readout not stated
Protocol: MIA PaCa-2 (KRAS G12C; ATCC® CRL-1420), NCI-H358 (KRAS G12C; ATCC® CRL-5807), A427 (KRAS G12D; ATCC® HTB53), HPAFII (KRAS G12D; ATCC® CRL-1997), YAPC (KRAS G12V; DSMZ ACC382), SW480 (KRAS G12V; ATCC® CRL-228) and NCI-H838 (KRAS WT; ATCC® CRL-5844) cells are cultured in RPMI 1640 media supplemented with 10% FBS (Gibco/Life Technologies). Eight hundred cells per well in RPMI 1640 media supplemented with 2% FBS are seeded into white, clear bottomed 384-well Costar tissue culture plates containing 50 nL dots of test compounds (final concentration is a 1:500 dilution, with a final concentration in 0.2% DMSO). Plates are incubated for 3 days at […], 5% CO2. At the end of the assay, 25 ul/well of CellTiter-Glo reagent (Promega) is added. Luminescence is read after 15 min. with a PHERAstar (BMG). Data are analyzed in Genedata Screener using SmartFit for IC50 values.
MIA PaCa-2 (KRAS G12C; ATCC® CRL-1420), NCI-H358 (KRAS G12C; ATCC® CRL-5807), A427 (KRAS G12D; ATCC® HTB53), HPAFII (KRAS G12D; ATCC® CRL-1997), YAPC (KRAS G12V; DSMZ ACC382), SW480 (KRAS G12V; ATCC® CRL-228) and NCI-H838 (KRAS WT; ATCC® CRL-5844) cells are purchased from ATCC and maintained in RPMI 1640 media supplemented with 10% FBS (Gibco/Life Technologies). The cells are plated at 5000 cells per well (8 uL) into Greiner 384-well low volume, flat-bottom, and tissue culture treated white plates and incubated overnight at […], 5% CO2. The next morning, test compound stock solutions are diluted in media at 3× the final concentration and 4 uL are added to the cells, with a final concentration of 0.1% of DMSO. The cells are incubated with the test compounds for 4 h (G12C and G12V) or 2 hrs (G12D) at 37° C., 5% CO2. Four uL of 4× lysis buffer with blocking reagent (Cisbio) are added to each well and plates are rotated gently (300 rpm) for 30 min. at r.t. Four uL per well of Cisbio anti Phospho-ERK ½ d2 is mixed with anti Phospho-ERK ½ Cryptate (1:1), and added to each well, incubated overnight in the dark at r.t. Plates are read on the Pherastar plate reader at 665 nm and 620 nm wavelengths. Data are analyzed in Genedata Screener using SmartFit for IC50 values.

[2] = biological target: KRAS G12V mutant (Homo sapiens, UniProt P01116, G12V); assay: GDP-GTP exchange assay (bodipy-GDP for GppNHp, with SOS1), KRAS G12V; format: biochemical; settings: bodipy-loaded KRAS G12V 2.5 nM, 3 h incubation after GppNHp-SOS1; read-out: G12V_ exchange
Chain of KRAS G12V mutant (P01116 1-188 isoform P01116-2 G12V): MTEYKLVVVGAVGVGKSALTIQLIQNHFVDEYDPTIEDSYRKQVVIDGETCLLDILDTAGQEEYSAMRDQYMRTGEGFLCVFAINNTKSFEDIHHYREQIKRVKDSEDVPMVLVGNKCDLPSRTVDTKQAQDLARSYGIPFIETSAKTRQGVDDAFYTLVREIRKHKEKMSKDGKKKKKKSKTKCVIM
Protocol: (§1) The inhibitor potency of the exemplified compounds was determined in a fluorescence based guanine nucleotide exchange assay, which measures the exchange of bodipy-GDP (fluorescently labeled GDP) for GppNHp (Non-hydrolyzable GTP analog) to generate the active state of KRAS in the presence of SOS1 (guanine nucleotide exchange factor). Inhibitors were serially diluted in DMSO and a volume of 0.1 μL was transferred to the wells of a black low volume 384-well plate. 5 μL/well volume of bodipy-loaded KRAS G12D diluted to 2.5 nM in assay buffer (25 mM Hepes pH 7.5, 50 mM NaCl, 10 mM MgCl2 and 0.01% Brij-35) was added to the plate and pre-incubated with inhibitor for 4 h at ambient temperature. Appropriate controls (enzyme with no inhibitor or with a G12D inhibitor) were included on the plate. The exchange was initiated by the addition of a 5 μL/well volume containing 1 mM GppNHp and 300 nM SOS1 in assay buffer. The 10 μL/well reaction concentration of the bodipy-loaded KRAS G12D, GppNHp, and SOS1 were 2.5 nM, 500 uM, and 150 nM, respectively. The reaction plates were incubated at ambient temperature for 2 h, a time estimated for complete GDP-GTP exchange in the absence of inhibitor. For the KRAS G12V mutant, similar guanine nucleotide exchange assays were used with 2.5 nM as final concentration for the bodipy loaded KRAS proteins and 3 h incubation after adding GppNHp-SOS1 mixture. A cyclic peptide described to selectively bind G12D mutant (Sakamoto et al., BBRC 484.3 (2017), 605-611) or internal compounds with confirmed binding were used as positive controls in the assay plates. Fluorescence intensities were measured on a PheraStar plate reader instrument (BMG Labtech) with excitation at 485 nm and emission at 520 nm.
(§2) Either GraphPad prism or Genedata Screener SmartFit was used to analyze the data. The IC50 values were derived by fitting the data to a four parameter logistic equation producing a sigmoidal dose-response curve with a variable Hill coefficient.
(§3) The symbol “†” indicates IC50≤100 nM, “††” indicates IC50>100 nM but ≤1 μM; and “†††” indicates IC50 is >1 μM but ≤5 μM, “††††” indicates IC50 is >5 μM but ≤10 μM. “NA” indicates IC50 not available.

[3] = biological target: KRAS G12D (Homo sapiens, UniProt P01116, G12D); assay: GDP-GTP exchange assay (bodipy-GDP for GppNHp, with SOS1), KRAS G12D; format: biochemical; settings: bodipy-loaded KRAS G12D 2.5 nM, 4 h pre-incubation, 2 h after GppNHp/SOS1; read-out: G12D_exchange
Chain of KRAS G12D (P01116 1-188 isoform P01116-2 G12D): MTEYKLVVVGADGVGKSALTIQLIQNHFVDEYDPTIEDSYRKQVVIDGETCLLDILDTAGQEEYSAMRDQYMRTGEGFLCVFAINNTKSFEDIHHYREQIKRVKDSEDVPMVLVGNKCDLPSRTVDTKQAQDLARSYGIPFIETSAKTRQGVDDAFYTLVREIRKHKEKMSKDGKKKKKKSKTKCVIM
Protocol: as §1, §2, §3

Measured: pIC50

C[C@H](Oc1nc2c(F)c(-c3cccc(Cl)c3Cl)c(CCC#N)cc2c2c1cc([C@H]1C[C@H](Oc3ncccc3F)CN1C(=O)C1CC1)n2[C@H]1[C@H]2CN[C@@H]1C2)[C@@H]1CCCN1C [Example 9, 3-(1-((1R,4R,5S)-2-Azabicyclo[2.1.1]hexan-5-yl)-2-((2R,4S)-1-(cyclopropanecarbonyl)-4-((3-fluoropyridin-2-yl)oxy)pyrrolidin-2-yl)-7-(2,3-dichlorophenyl)-6-fluoro-4-((S)-1-((S)-1-methylpyrrolidin-2-yl)ethoxy)-1H-pyrrolo[3,2-c]quinolin-8-yl)propanenitrile]
≥ 7.00: all assays above
